Measurements taken from patent US4001414A, “1,3,4-Trimethyl-2-(3,4,5-trimethoxybenzyl)-1,2,5,6-tetrahydropyridine and analgesic composition and method using it” (priority 1974, dated 1977).

How the values were obtained:
[1] = system: acetic acid-induced writhing; assay: Analgesic activity, acetic acid-induced writhing technique; type: in vivo, albino I.C.R. Swiss mice; conditions: for No. of writhes (x ± M.S.E.): acetic acid 0.25 ml of 1% i.p. after 30 minutes, writhes counted in 20 minutes, p <0.001, control 112.2 ± 4.2, average value ± mean standard error; for analgesic activity (in words): as may be seen from Table B, mice
Procedure: The analgesic activity was investigated in albino I.C.R. Swiss mice, using the acetic acid-induced writhing technique. Groups each of 10 mice were assembled.
The analgesics were injected intraperitoneally, and after 30 minutes 0.25 ml of a 1% solution of acetic acid was injected intraperitoneally. A control group received only acetic acid. The numbers of writhes made by each mouse was counted in the 20 minutes following administration of the acetic acid.

[2] = Acute toxicity (LD50), i.p., method of Litchfield and Wilcoxon; conditions: mouse, in vivo, ip; I.C.R. Swiss mice, both sexes, 30 ± 2 g, intraperitoneal
Procedure: Acute toxicity studies were conducted in I.C.R. Swiss mice weighing 30 ± 2 g, of both sexes. The products were administered intraperitoneally (i.p.). The acute toxicity calculations were made by the method of Litchfield and Wilcoxon.

| SMILES | No. of writhes (x ± M.S.E.) ([1]; 20 mg/kg i.p.) | analgesic activity (in words) ([1]; 20 mg/kg i.p.) | LD50 [2] [mg/kg] | No. of writhes (x ± M.S.E.) ([1]; 25 mg/kg i.p.) |
| --- | --- | --- | --- | --- |
| COc1cc(CC2C(C)=C(C)CCN2C)cc(OC)c1OC (stereo not drawn) [Product I, 1,3,4-trimethyl-2-(3,4,5-trimethoxybenzyl)-1,2,5,6-tetrahydropyridine] | 74.5 ± 4.84 | have analgesic activity |  |  |
| COc1cc(C[N+]2(C)CCC(C)=C(C)C2)cc(OC)c1OC.[Cl-] (stereo not drawn) [Product II, 1,3,4-trimethyl-1-(3,4,5-trimethoxybenzyl)-1,2,5,6-tetrahydropyridinium chloride] | 53.6 ± 4.7 | have analgesic activity | 77 |  |
| CCC(=O)O[C@](Cc1ccccc1)(c1ccccc1)[C@H](C)CN(C)C [Dextropropoxyphene, reference compound] |  |  |  | 22.8 ± 4.74 |
